Results published in PubChem BioAssay (NCI).
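In this assay, cells in 96-well plates receive the compound at five concentrations for 48 hours. Endpoints are linearly interpolated between the surrounding concentrations. Here, GI50 denotes the concentration required for 50% inhibition of growth. The concentration for full growth arrest is given as TGI.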

Columns and labels:
Test in all cases: NCI anticancer screen, dose series, 48 h
SF-268 CNS = test system: SF-268 CNS
CCRF-CEM leukemia = test system: CCRF-CEM leukemia
A498 renal = test system: A498 renal
RXF 393 renal = test system: RXF 393 renal
RPMI-8226 leukemia = test system: RPMI-8226 leukemia
SN12C renal = test system: SN12C renal
MALME-3M melanoma = test system: MALME-3M melanoma
BT-549 breast = test system: BT-549 breast
MOLT-4 leukemia = test system: MOLT-4 leukemia
786-0 renal = test system: 786-0 renal

Row | Structure (SMILES) | GI50 (SF-268 CNS) [µM] | TGI (SF-268 CNS) [µM] | GI50 (CCRF-CEM leukemia) [µM] | TGI (CCRF-CEM leukemia) [µM] | GI50 (A498 renal) [µM] | TGI (A498 renal) [µM] | GI50 (RXF 393 renal) [µM] | TGI (RXF 393 renal) [µM] | GI50 (RPMI-8226 leukemia) [µM] | TGI (RPMI-8226 leukemia) [µM] | GI50 (SN12C renal) [µM] | TGI (SN12C renal) [µM] | GI50 (MALME-3M melanoma) [µM] | TGI (MALME-3M melanoma) [µM] | GI50 (BT-549 breast) [µM] | TGI (BT-549 breast) [µM] | GI50 (MOLT-4 leukemia) [µM] | TGI (MOLT-4 leukemia) [µM] | GI50 (786-0 renal) [µM] | TGI (786-0 renal) [µM]
1 | COc1ccc(OC)c(-c2nc3sccn3c2/C=C2/C(=O)Nc3ccc(Cl)cc32)c1 | 30.6 | > 100 | 32.1 | > 100 | 20.8 | 38.8 | 27.6 | > 100 | 26.9 | 94.8 | 35.2 | > 100 | 30.8 | 80.8 | 24.2 | 74.3 | 22.1 | 69.4 | 44.7 | > 100
2 | C=C1CCC2C3(C)COC(c4ccc(NC(C)=O)cc4)OC3CCC2(C)C1C/C=C1/C(=O)OCC1O (centres undefined) | > 100 | > 100 | 3.08 | > 100 | > 100 | > 100 | 46.9 | > 100 | 0.985 | 8.32 | > 100 | > 100 | 5.96 | > 100 | 1.86 | 9.35 | 2.32 | 24.9 | > 100 | > 100
3 | COc1ccccc1/C=C\c1cnnc2ccccc12 |  | > 10 |  | > 10 |  | > 10 |  | > 10 |  | > 10 |  | > 10 |  | > 10 |  | > 10 |  | > 10 |  | > 10
4 | CN1/C(=C\C(I)C(I)C2=[N+](C)c3ccccc3C2(C)C)C(C)(C)c2ccccc21 (centres undefined) | 0.479 | 19.1 | 0.226 | 31 | 0.178 | 1.49 | 0.497 | 3.6 | 0.057 | 2.67 | 0.277 | 9.86 | 0.277 | 14 | 0.119 | 3.17 | 0.243 | 2.07 | 0.904 | 16.2
5 | C#CCN1C(=O)/C(=c2\sc3n(c2=O)C2C(NN=3)N(CC)C(=O)N2CC)c2ccccc21 (centres undefined) | 5.5 | > 100 | 0.381 | > 100 | 0.186 | 0.728 | 0.354 | 2.28 | 0.375 |  | 0.797 | > 100 | 0.595 | > 100 | 0.568 | 12.4 | 0.708 | > 100 | 0.669 | 22.5
6 | CC1(C)CCC[C@]23C(=O)O[C@](O)(C(=O)C4=C[C@@](C)(/C=C/CCCc5ccc6ccc7cccc8ccc5c6c78)CC[C@@]42O)[C@@H]13 | 0.208 | 0.498 | 0.199 | 5.87 | 0.15 | 0.288 | 0.174 | 0.335 | 0.196 | 0.571 | 0.164 | 0.339 | 0.177 | 0.332 | 0.141 | 0.282 | 0.265 | 11.2 | 0.182 | 0.343
